Data on twelve compounds can be found in ChEMBL document CHEMBL4725394 (J Med Chem, 2020).

SMILES strings stand for the structures. Calls of active or inactive are those of the source. No cut-off for these calls is given here.

For data set [1], the target named is T1, Free fatty acid receptor 1 (Homo sapiens, UniProt O14842). Put plainly: Agonist activity at human GPR40 expressed in CHO cells at 10 uM incubated for 60 mins by FLIPR based Ca2+ mobilization assay relative to gamma-linolenic acid. The format is functional, cell-based. (Calcium flux is commonly read through the fluorescence of an indicator in the cells.)
For data set [2], the system named is Rattus norvegicus. Kind of data set: Stimulation of insulin secretion in Wistar Kyoto N-STZ-1.5 rat model of streptozotocin-induced diabetes at 10 mg/kg, po followed by glucose challenge by ELISA. The format is functional, organism-based.
Data set [3] relates to Rattus norvegicus. Put plainly: Suppression of glucose tolerance in Wistar Kyoto N-STZ-1.5 rat model of streptozotocin-induced diabetes at 10 mg/kg, po followed by glucose challenge. The format is functional, organism-based.
The next data set has as its system HepG2. Kind of data set: Cytotoxicity in human HepG2 cells assessed as caspase-3/7 activity level at 30 uM by Caspase-GloTM 3/7 assay relative to staurosporine. Particulars: hepg2, 24 h, time 1 day. The format is cell-based.
Data set [4] has as its target T1, Free fatty acid receptor 1. Kind of data set: Binding affinity to human GPR40 expressed in CHO cells in presence of 10 and 100 nM […] by LC-MS analysis based competitive binding assay. The format is cell-based. The following applies: filed as agonist, dose nM 10-100.
Data set [5] addresses T1, Free fatty acid receptor 1. Put plainly: Agonist activity at human GPR40 expressed in CHO cells incubated for 60 mins by FLIPR based Ca2+ mobilization assay. The format is functional, cell-based.
The target of data set [6] is T1, Free fatty acid receptor 1. Put plainly: Binding affinity to human GPR40 expressed in CHO cells assessed as formation of protein-ternary complex by LC-MS analysis. The format is cell-based. The following applies: filed as agonist.
Data set [7] in a line: Cytotoxicity in human HepG2 cells assessed as intracellular ATP content level at 30 uM by ATPlite-M assay relative to control. The format is cell-based. The following applies: time 1 day, read-out: Activity. Background: In ATP-based viability assays light output follows the ATP content of the culture.
Data set [8] concerns the target T1, Free fatty acid receptor 1. Kind of data set: Agonist activity at human GPR40 expressed in CHO cells incubated for 60 mins by FLIPR based Ca2+ mobilization assay relative to gamma-linolenic acid. The format is functional, cell-based. The following applies: filed as agonist.
Data set [9] addresses T1, Free fatty acid receptor 1. Put plainly: Binding affinity to human GPR40 expressed in CHO cells by LC-MS analysis. The format is cell-based.
Data set [10] in a line: Cmax in Wistar Kyoto N-STZ-1.5 rat model of streptozotocin-induced diabetes at 0.1 to 1 mg/kg, po followed by glucose challenge during 2-week-dosing study. The format is ADME, organism-based. The following applies: in vivo. On the set-up: time 2 weeks, dose 0.1-1.
Data set [11] in a line: Cmax in diabetic patient at 50 mg, po. The format is ADME. On the set-up: dose 50 mg, route oral. Particulars: human, in vivo.
Data set [12] in a line: AUC (0 to 24 hrs) in diabetic patient at 50 mg, po. The format is ADME. Further details: dose 50 mg, time < 24 hr, route oral. Particulars: human, in vivo.
The nature of data set [13]: AUC (0 to 24 hrs) in Wistar Kyoto N-STZ-1.5 rat model of streptozotocin-induced diabetes at 0.1 to 1 mg/kg, po followed by glucose challenge during 2-week-dosing study. The following applies: in vivo. On the set-up: time 2 weeks, dose 0.1-1. The format is ADME, organism-based.
Data set [14] deals with T1, Free fatty acid receptor 1. Put plainly: Agonist activity at human GPR40 expressed in CHO cells at 1 uM incubated for 60 mins by FLIPR based Ca2+ mobilization assay relative to gamma-linolenic acid. The format is functional, cell-based.
Data set [15] is described as follows: MRT in Sprague-Dawley rat at 1 mg/kg, po by high-performance LC-tandem MS analysis. The format is ADME, organism-based. The following applies: in vivo.
Data set [16] can be described thus: Total clearance in Sprague-Dawley rat at 0.1 mg/kg, iv by high-performance LC-tandem MS analysis. The format is ADME, organism-based. The following applies: in vivo.
Data set [17] is described as follows: Cmax in ICR mouse at 1 mg/kg, po by high-performance LC-tandem MS analysis. The format is ADME, organism-based. On the set-up: route oral, dose 1 mg/kg. The following applies: in vivo.
A short description of data set [18]: Cmax in Sprague-Dawley rat at 1 mg/kg, po by high-performance LC-tandem MS analysis. The format is ADME, organism-based. On the set-up: route oral, dose 1 mg/kg. Particulars: in vivo.
The nature of data set [19]: AUC (0 to 8 hrs) in Sprague-Dawley rat at 1 mg/kg, po by high-performance LC-tandem MS analysis. The format is ADME, organism-based. The following applies: in vivo. Further details: time < 8 hr, route oral, dose 1 mg/kg.
Data set [20] has as its system Rattus norvegicus. Put plainly: Suppression of glucose tolerance in Wistar Kyoto N-STZ-1.5 rat model of streptozotocin-induced diabetes at 0.1 to 1 mg/kg, po followed by glucose challenge. The format is functional, organism-based. Particulars: dose mg/kg 0.1-1.
Data set [21] in a line: Volume of distribution at steady state in Sprague-Dawley rat at 0.1 mg/kg, iv by high-performance LC-tandem MS analysis. The following applies: in vivo, read-out: Vdss. The format is ADME, organism-based.
A short description of data set [22]: Oral bioavailability in Sprague-Dawley rat at 1 mg/kg by high-performance LC-tandem MS analysis. The format is ADME, organism-based. The following applies: in vivo.
Data set [23] is described as follows: Oral bioavailability in ICR mouse at 1 mg/kg by high-performance LC-tandem MS analysis. The format is ADME, organism-based. The following applies: in vivo.
Data set [24] deals with Voltage-gated inwardly rectifying potassium channel KCNH2 (Homo sapiens, UniProt Q12809). Kind of data set: Inhibition of human ERG.
Data set [25] is described as follows: MRT in ICR mouse at 1 mg/kg, po by high-performance LC-tandem MS analysis. The format is ADME, organism-based. Particulars: in vivo.
The test system of data set [26] is Rattus norvegicus. Put plainly: Suppression of body weight in Wistar Kyoto N-STZ-1.5 rat model of streptozotocin-induced diabetes at 0.1 to 1 mg/kg, po followed by glucose challenge during 2-week-dosing study. The format is functional, organism-based. Particulars: dose mg/kg 0.1-1, time 2.0 weeks.
A short description of data set [27]: Volume of distribution at steady state in ICR mouse at 0.1 mg/kg, iv by high-performance LC-tandem MS analysis. The format is ADME, organism-based. The following applies: in vivo, read-out: Vdss.
Data set [28] relates to Rattus norvegicus. Kind of data set: Stimulation of insulin secretion in Wistar Kyoto N-STZ-1.5 rat model of streptozotocin-induced diabetes at 0.1 to 1 mg/kg, po followed by glucose challenge by ELISA. The format is functional, organism-based. The following applies: dose mg/kg 0.1-1. On the technique in general: In an ELISA, binding on a coated surface is turned into a signal by an enzyme label.

Data set [29] in a line: Total clearance in ICR mouse at 0.1 mg/kg, iv by high-performance LC-tandem MS analysis. The format is ADME, organism-based. The following applies: in vivo.
A short description of data set [30]: AUC (0 to 8 hrs ) in ICR mouse at 1 mg/kg, po by high-performance LC-tandem MS analysis. The format is ADME, organism-based. Further details: time < 8 hr, route oral, dose 1 mg/kg. The following applies: in vivo.
Data set [31] deals with Rattus norvegicus. Kind of data set: Stimulation of GLP1 release in Wistar Kyoto N-STZ-1.5 rat model of streptozotocin-induced diabetes at 0.1 to 1 mg/kg, po followed by glucose challenge by ELISA. Particulars: dose mg/kg 0.1-1. The format is functional, organism-based.

T1 sequence (O14842 whole entry): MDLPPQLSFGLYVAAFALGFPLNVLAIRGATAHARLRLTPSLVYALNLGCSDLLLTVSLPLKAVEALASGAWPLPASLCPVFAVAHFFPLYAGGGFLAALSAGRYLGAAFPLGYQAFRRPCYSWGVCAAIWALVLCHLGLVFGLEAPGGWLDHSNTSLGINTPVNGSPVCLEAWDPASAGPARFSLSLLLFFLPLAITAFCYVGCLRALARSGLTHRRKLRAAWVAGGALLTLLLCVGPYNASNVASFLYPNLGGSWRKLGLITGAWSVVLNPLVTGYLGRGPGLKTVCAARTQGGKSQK
Sequence of Voltage-gated inwardly rectifying potassium channel KCNH2 (Q12809 whole entry): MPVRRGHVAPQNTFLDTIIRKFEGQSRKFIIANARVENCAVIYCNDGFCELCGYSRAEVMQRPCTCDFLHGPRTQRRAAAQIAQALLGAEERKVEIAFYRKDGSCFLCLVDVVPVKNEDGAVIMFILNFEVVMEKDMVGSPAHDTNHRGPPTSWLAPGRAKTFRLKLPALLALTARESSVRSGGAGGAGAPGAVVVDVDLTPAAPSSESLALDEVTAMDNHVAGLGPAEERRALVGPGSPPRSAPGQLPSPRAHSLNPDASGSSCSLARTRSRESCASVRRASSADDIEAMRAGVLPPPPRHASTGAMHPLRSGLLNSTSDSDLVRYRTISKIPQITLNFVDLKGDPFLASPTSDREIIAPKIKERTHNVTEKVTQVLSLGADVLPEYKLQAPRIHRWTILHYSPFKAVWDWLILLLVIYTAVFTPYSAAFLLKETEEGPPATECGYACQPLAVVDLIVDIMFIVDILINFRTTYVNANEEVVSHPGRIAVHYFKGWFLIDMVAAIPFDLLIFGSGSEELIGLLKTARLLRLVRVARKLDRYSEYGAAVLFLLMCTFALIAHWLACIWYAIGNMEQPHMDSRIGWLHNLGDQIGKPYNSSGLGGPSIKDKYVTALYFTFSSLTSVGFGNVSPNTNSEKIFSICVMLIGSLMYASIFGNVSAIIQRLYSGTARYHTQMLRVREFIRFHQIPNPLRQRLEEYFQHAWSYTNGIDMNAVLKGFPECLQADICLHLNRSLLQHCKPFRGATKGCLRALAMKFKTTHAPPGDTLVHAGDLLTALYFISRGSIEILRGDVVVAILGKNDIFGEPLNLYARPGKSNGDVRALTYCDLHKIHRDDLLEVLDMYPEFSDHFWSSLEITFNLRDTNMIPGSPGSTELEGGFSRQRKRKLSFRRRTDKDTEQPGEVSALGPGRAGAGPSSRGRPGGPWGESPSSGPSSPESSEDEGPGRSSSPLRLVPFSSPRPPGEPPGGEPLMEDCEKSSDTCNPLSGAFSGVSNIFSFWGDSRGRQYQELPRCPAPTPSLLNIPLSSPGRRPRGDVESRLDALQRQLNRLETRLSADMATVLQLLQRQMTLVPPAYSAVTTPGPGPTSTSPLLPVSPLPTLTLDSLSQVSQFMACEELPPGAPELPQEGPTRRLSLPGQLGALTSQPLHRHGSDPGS

For `COc1ccc(CCCC(C)(C)C)c(N2CCC(Oc3cccc(C(CC(=O)O)C4CC4)c3)CC2)c1` (centres undefined), the Activity in data set [1] came to 22%.
As for `N[C@@H](CC(=O)N1CCn2c(nnc2C(F)(F)F)C1)Cc1cc(F)c(F)cc1F`, the result in the data set with Rattus norvegicus [2] and in the data set with Rattus norvegicus [3] was Active.
Regarding `COc1ccc(C(=O)N(CC(C)(C)C)c2cccc(C)n2)c(N2CCC(COc3cccc(C(CC(=O)O)C4CC4)n3)CC2)c1` (centres undefined), the Activity in data set [1] was found to be 39%.
In the case of `COc1ccc(CCCC(C)(C)C)c(N2CCC(COc3cccc(C(CC(=O)O)C4CC4)c3)CC2)c1` (centres undefined), in the data set with HepG2, the Activity turned out to be 26%. Further, the result in [4] and in data set [6] was Active. In data set [5], this compound showed an EC50 of 11 nM. The viability at 24 h, 30 µM in data set [7] was 0.1%. This compound also displayed an Emax in [8] of 106%.
As to `COc1ccc(F)c(-c2ccc(COc3cccc([C@@H](CC(=O)O)C4CC4)c3)cc2C2=CCCC2(C)C)c1`, the EC50 in data set [5] stood at 150 nM. The compound also returned an equilibrium dissociation constant (Kd) in data set [9] of 5 nM. Besides, the Emax in [8] was 182%.
With `Cc1cc(OCCCS(C)(=O)=O)cc(C)c1-c1cccc(COc2ccc3c(c2)OC[C@H]3CC(=O)O)c1`, the Cmax in data set [10] worked out at 39.8 ng/mL; in data set [11] it was 5300 ng/mL. The compound further came in with an AUC(0-t) at 24 h in data set [12] of 100000 ng·h/mL. Besides, the AUC(0-t) at 336 h in [13] was determined as 255 ng·h/mL.
For the compound `COc1ccc(C(=O)N(C)c2ccccc2)c(N2CCC(COc3cccc(C(CC(=O)O)C4CC4)c3)CC2)c1` (centres undefined), the Activity in the data set on HepG2 is reported as 2.8%. This compound displayed an EC50 in data set [5] of 140 nM. Also, the viability at 24 h, 30 µM in [7] amounted to 79.3%. In [8], this compound came in with an Emax of 101%.
Take `COc1cccc(N2CCC(COc3cccc(C(CC(=O)O)C4CC4)c3)CC2)c1` (centres undefined): the Activity in the data set with HepG2 is -1.1%; in data set [1] (filed as agonist), 91%; in [14] it was 8%. Besides, the viability at 24 h, 30 µM in data set [7] stood at 92%.
Consider `COc1ccc(F)c(N2CCC(COc3cccc(C(CC(=O)O)C4CC4)c3)CC2)c1` (centres undefined), for which the Activity with HepG2 is on record as -1.7%. In [5], this compound yielded an EC50 of 670 nM. The viability at 24 h, 30 µM in data set [7] came to 72.7%. In [8], the Emax is 114%.
As for `COc1ccc(C(=O)N(CC(C)(C)C)c2cccc(C)n2)c(N2CCC(COc3cc([C@@H](CC(=O)O)C4CC4)ccn3)CC2)c1`, the MRT worked out at 4.1 h in [15] and 2.3 h in data set [25]. Further, the clearance in data set [16] is 24.6 mL/min/kg; in data set [29], 43.1 mL/min/kg. Besides, the EC50 in data set [5] amounted to 12 nM. Besides, the Cmax in data set [17] stood at 33.2 ng/mL; in data set [18] it was 19.9 ng/mL; in data set [10] it was 139 ng/mL. Further, the AUC(0-t) at 8 h in [19] is 127 ng·h/mL; in [30], 98.7 ng·h/mL. Further, the result with Rattus norvegicus [20], in the data set with Rattus norvegicus [26], with Rattus norvegicus [28] and with Rattus norvegicus [31] was Active. Also, the Vd worked out at 3.09 L/kg in data set [21] and 1.35 L/kg in data set [27]. The bioavailability in data set [22] turned out to be 16%; in data set [23], 26%. The IC50 in [24] was above 10000 nM. In [7], the viability at 24 h, 30 µM amounted to 92.1%. The same compound registered an Emax in data set [8] of 108%. In data set [13], this compound showed an AUC(0-t) at 336 h of 626 ng·h/mL.
In the case of `COc1ccc(C(=O)N(C)c2ccccn2)c(N2CCC(COc3cccc(C(CC(=O)O)C4CC4)c3)CC2)c1` (centres undefined), in the data set on HepG2, the Activity was -1.1%. The same compound showed an EC50 in data set [5] of 180 nM. In addition, the viability at 24 h, 30 µM in data set [7] is 83.6%. The Emax in [8] turned out to be 105%.
In the same order, the values of `COc1ccc(C(C)C)c(N2CCC(COc3cccc(C(CC(=O)O)C4CC4)c3)CC2)c1` (centres undefined) are 43.4%, 120 nM, 0.1% and 117%.

For orientation: EC50 means the concentration that produces a half-maximal response. Higher therefore signals weaker potency. By Emax is commonly meant the maximal effect, on the per cent scale that the assay sets. As usually defined, the Kd is the concentration at which binding is half-saturated. Low readings indicate a tighter complex, high ones a looser complex. A word on the MRT: it is a mean duration of stay, worked out from the concentration-time curve. Usually clearance stands for the volume of plasma or blood freed of the substance per unit of time. Low values mean a low capacity for elimination, high ones a high capacity for elimination. In general, bioavailability refers to the share of a dose that reaches the circulation, judged against a reference dose that is usually intravenous. Usually IC50 stands for the concentration needed to halve the response being measured. A higher IC50 goes with weaker potency.
